For 33 molecules, TGI and GI50 results are on record in PubChem BioAssay (NCI).

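Where inhibition never reached the appropriate level, the endpoint shown equals the highest concentration tested. Otherwise, values were interpolated linearly from a five-concentration, 48-hour dose response in 96-well plates. The concentration for 50% growth inhibition is given as GI50. TGI denotes the concentration required for complete inhibition of growth.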

Holding throughout (test): DTP human tumour cell line panel, 48 h
The subject of assay [1] is MDA-N.
In assay [2] the test system is DMS 273 small cell lung.
Assay [3] deals with DLD-1 colon.
In assay [4] the test system is DMS 114 small cell lung.
Assay [5] has as its system SNB-78 CNS.
In assay [6] the test system is XF 498 CNS.
Assay [7] relates to M19-MEL melanoma.
In assay [8] the test system is HOP-18 NSCLC.

The TGI is the concentration giving total growth inhibition. High values mean less potent growth arrest, low ones more potent growth arrest. For orientation: GI50 means the concentration that inhibits growth by half.

`CNC1NC(=O)c2ccccc2N1Cc1ccc(F)cc1` (stereo not given) came in with a concentration for total growth inhibition (TGI) in assay [1] above 100 µM.

With `COc1cc2c(cc1OC)[C@@H](C(O)c1ccccc1)NCC2` (stereo not given in full), the concentration for total growth inhibition (TGI) in assay [2], in assay [3], in assay [4], in assay [5], in assay [6] and in assay [7] was above 100 µM in each case.

As for `CC[O-].CC[O-].O=Nc1ccc2cc([O-])ccc2c1.O=Nc1ccc2cc([O-])ccc2c1.[Ti+4]`, the GI50 is 1680 nM in assay [2]; 2450 nM in assay [3]; 1950 nM in assay [4]; 2790 nM in assay [5]; 1490 nM in assay [8]; 728 nM in assay [7]. Moreover, the concentration for total growth inhibition (TGI) is 3.11 µM in assay [2]; above 21.9 µM in assay [3]; 6.06 µM in assay [4]; 2.82 µM in assay [8]; 3.25 µM in assay [7].

`c1cncc(C(Nc2cccc3cccnc23)Nc2cccc3cccnc23)c1` came in with a TGI in assay [1] above 100 µM.

With `NC(=O)C1=C(c2ccccc2)c2ccccc2C1=O`, the TGI in assay [1] worked out at 38.1 µM.

In assay [1], `CCc1oc2ccccc2c1C(=O)c1cc(Br)c(O)c(Br)c1` gave a TGI above 100 µM.

With `COc1ccc(/C=C2\CNC/C(=C\c3ccc(OC)cc3)C2=O)cc1`, the total growth inhibition concentration (TGI) in assay [2], in assay [3], in assay [4], in assay [5], in assay [6] and in assay [8] was above 100 µM each time. This molecule returned a TGI in assay [7] above 100 µM.

Regarding `COc1ccc(C=NC23CC4CC(CC(C4)C2)C3)cc1`, the TGI in assay [2] was above 10 µM; in assay [4], above 100 µM; in assay [5], above 100 µM; in assay [7] it was above 10 µM.

Turning to `CN(C)c1ccc(/C=C2\N=C(c3ccc(N)cc3)OC2=O)cc1`, the concentration for total growth inhibition (TGI) in assay [2], in assay [3], in assay [4], in assay [5], in assay [6] and in assay [8] was above 100 µM in each case. The TGI in assay [7] is above 100 µM.

For the molecule `CCN(CC)C(=S)N/N=C(\C)c1ccccc1O`, the TGI in assay [2] is above 100 µM; in assay [3], above 100 µM; in assay [4] it was above 100 µM; in assay [5], above 100 µM; in assay [8] it was 86.5 µM; in assay [7] it was above 100 µM.

For the molecule `COc1ccc2nc(NC(=O)C(=O)CC(=O)c3ccc(Cl)cc3)sc2c1`, the TGI in assay [2], in assay [3], in assay [4], in assay [5], in assay [6] and in assay [8] was above 100 µM each time. Further, the TGI in assay [7] is above 100 µM.

As for `Cc1c(C(=O)CC(=O)C(=O)Nc2cccc(C(F)(F)F)c2)[n+](=O)c2ccccc2n1[O-]`, the TGI in assay [2] worked out at 10.3 µM; in assay [4], 4.43 µM; in assay [5] it was 25.2 µM; in assay [8], 25.5 µM; in assay [7] it was 3.69 µM.

For `CC(C)(C)C(=O)C(c1ccc(-c2cscn2)cc1)c1ccc(-c2cscn2)cc1`, the total growth inhibition concentration (TGI) in assay [2] was above 100 µM; in assay [3] it was above 100 µM; in assay [5], 78.5 µM; in assay [6] it was 80.5 µM; in assay [8], above 100 µM; in assay [7], above 100 µM.

On to `CC(=O)O[C@@H]1CC(C)C2CC2C2=C(C(O)OC2O)[C@@H]1C(C)CCC=C(C)C` (stereo not given in full), for which the concentration for total growth inhibition (TGI) in assay [2] is 45.3 µM; in assay [3] it was 73.3 µM; in assay [4], 50.4 µM; in assay [5], 90.2 µM; in assay [6] it was 49.9 µM; in assay [7], 47.5 µM.

On to `CCOC(=O)C#Cc1ccc(C#CC(=O)OCC)cc1`, for which, in assay [1], the concentration for total growth inhibition (TGI) turned out to be 4.87 µM.

As for `Cc1cc2c(c(C#N)c1C)NC(=O)C(CC(=O)O)C2=O` (stereo not given), the total growth inhibition concentration (TGI) in assay [2], in assay [3], in assay [4], in assay [5], in assay [6] and in assay [8] was above 100 µM each time. Besides, the TGI in assay [7] is above 100 µM.

`Cc1cccc(C)c1NC(=O)C(=O)CC(=O)CO`: the TGI in assay [2], in assay [3], in assay [4], in assay [5], in assay [8] and in assay [7] was above 100 µM each time.

As to `O=C(c1ccc(NCN2C(=O)CCC2=O)cc1)c1ccc(NCN2C(=O)CCC2=O)cc1`, the total growth inhibition concentration (TGI) in assay [2], in assay [3], in assay [5], in assay [6] and in assay [7] was above 100 µM throughout.

Take `O=C(O)c1ccc([N+](=O)[O-])c2c(=O)c3ccccc3[nH]c12`: the TGI in assay [2], in assay [3], in assay [4], in assay [5], in assay [8] and in assay [7] was above 100 µM each time.

`C=CCN=C1N=C(CC(=O)OCC)CS1`: the TGI in assay [2], in assay [3], in assay [4], in assay [5], in assay [6] and in assay [8] was above 100 µM in each case. This molecule also registered a TGI in assay [7] above 100 µM.

With `Cc1ccc(C2=Nc3ccccc3NC(=O)C2)cc1`, the TGI in assay [2] is above 100 µM; in assay [3] it was above 100 µM; in assay [4] it was above 100 µM; in assay [5], above 100 µM; in assay [6] it was 93.4 µM; in assay [8], above 100 µM. The molecule further registered a TGI in assay [7] above 100 µM.

In assay [1], `CN(C)CCNC(=O)c1cc([N+](=O)[O-])ccn1` registered a TGI of 30.7 µM.

Turning to `CNS(=O)(=O)NN(C)S(=O)(=O)c1ccc(Br)cc1`, the TGI in assay [2], in assay [4], in assay [6] and in assay [7] was above 100 µM each time.

On to `NC1CCC[C@@H](O)[C@H]1O` (stereo not given in full), for which the TGI in assay [1] was above 100 µM.

In the case of `CC(=O)OC[C@@H]1[C@H]2CC(=O)O[C@H]2C[C@H]1OC(C)=O`, the TGI in assay [2], in assay [3], in assay [4], in assay [5], in assay [8] and in assay [7] was above 100 µM throughout.

`Cn1c2ccc([N+](=O)[O-])cc2c(=O)c2c(O)cc(O)cc21` had a TGI in assay [1] above 100 µM.

As to `O=C1NC2(O)c3ccccc3C(=O)C2(O)N1c1ccccc1` (stereo not given), the total growth inhibition concentration (TGI) in assay [3], in assay [4], in assay [6], in assay [8] and in assay [7] was above 100 µM in each case.

On to `COC[C@H]1OC(=O)c2coc3c2[C@@]1(C)C1=C(C3=O)[C@@H]2CCC(=O)[C@@]2(C)C[C@H]1OC(C)=O`, for which the TGI in assay [1] was above 100 µM.

In the case of `CC(=O)Oc1cccc2c1C(=O)C(Br)(Br)CCC2`, the concentration for total growth inhibition (TGI) in assay [1] amounted to 12.8 µM; in assay [2], 14.9 µM; in assay [3], 36.2 µM; in assay [4], 7.79 µM; in assay [5] it was 33.8 µM; in assay [6], 24.1 µM. In addition, the figures for the total growth inhibition concentration (TGI) in assay [8] and in assay [7] were 32.2 µM and 24.6 µM, respectively.

Consider `CCOC(=O)NC(=O)c1cn(CCCOC(=O)CCCCCCCCC(=O)OCCCn2cc(C(=O)NC(=O)OCC)c(=O)[nH]c2=O)c(=O)[nH]c1=O`, for which the TGI was 66.6 µM in assay [2]; 53.1 µM in assay [3]; 39.2 µM in assay [4]; above 100 µM in assay [5]; 72.4 µM in assay [6]; 56.4 µM in assay [8]. Also, the TGI in assay [7] was above 100 µM.

On to `O=Cc1[nH]c2ccccc2c1Br`, for which the TGI in assay [2] was 36.3 µM; in assay [3], above 100 µM; in assay [4], 44.7 µM; in assay [5] it was 44.1 µM; in assay [6], 63.7 µM; in assay [8], 83.4 µM. Moreover, the TGI in assay [7] is 59.7 µM.

In the case of `N#CC1(c2nc3ccccc3o2)C(=O)C(=O)N(c2ccc(Cl)c(Cl)c2)C(=O)C1=O`, the total growth inhibition concentration (TGI) in assay [2], in assay [3], in assay [5], in assay [6] and in assay [8] was above 100 µM each time.

`C=C1C(=O)O[C@@H]2C[C@@H](C)[C@@H]3[C@@H](OC4OC(COC(C)=O)C(O)C(O)C4O)CC(=O)[C@@]3(C)C[C@H]12` (stereo not given in full) yielded a total growth inhibition concentration (TGI) in assay [1] of 3.51 µM.
